In patent publication US20230085307A1, “PYRIDAZINONE COMPOUND AND HERBICIDE” (NISSAN CHEMICAL CORPORATION, priority 2019, published 2023):

Columns and labels:
[1] = test system: redroot pigweed; assay: Test Example 5: herbicidal effect by foliage application, plastic box (Table 20, symbol N); format: in vivo, redroot pigweed (Amaranthus retroflexus); details: foliage application, 320 g/ha, three weeks after application
How it was run: (§1)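 Foliar spray test: emulsion formulation diluted in water to a set application rate, sprayed onto 14-day-old plants raised in diluvial soil at 25° C to 30° C under glass. Both herbicidal effect and crop effect rated visually three weeks later.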

[2] = test system: wild oat; assay: Test Example 4: herbicidal effect by soil treatment (Table 19, symbol I); format: in vivo, wild oat (Avena fatua); details: amount of applied herbicide 320 g/ha
How it was run: (§2)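 Step 1: sow seeds in sterilized diluvial soil, cover ~1.5 cm. Step 2: spray diluted emulsion onto soil surface at predetermined rate. Step 3: greenhouse, 25–30° C, three weeks. Step 4: grade effect on each plant by earlier criteria.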

[3] = test system: velvetleaf; assay: Test Example 4: herbicidal effect by soil treatment (Table 19, symbol M); format: in vivo, velvetleaf (Abutilon theophrasti); details: amount of applied herbicide 320 g/ha
How it was run: as §2

[4] = test system: false cleavers; assay: Test Example 5: herbicidal effect by foliage application, plastic box (Table 20, symbol Q); format: in vivo, false cleavers (Galium spurium); details: foliage application, 320 g/ha, three weeks after application
How it was run: as §1

[5] = test system: lambsquarters; assay: Test Example 4: herbicidal effect by soil treatment (Table 19, symbol O); format: in vivo, lambsquarters (Chenopodium album); details: amount of applied herbicide 320 g/ha
How it was run: as §2

[6] = test system: blackgrass; assay: Test Example 4: herbicidal effect by soil treatment (Table 19, symbol J); format: in vivo, blackgrass (Alopecurus myosuroides); details: amount of applied herbicide 320 g/ha
How it was run: as §2

[7] = test system: rice flat sedge; assay: Test Example 3: herbicidal effect by foliage application, Wagner pot (Table 18, symbol E); format: in vivo, rice flat sedge (Cyperus iria); details: 320 g/ha
How it was run: (§3)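 Plants were sown in alluvial soil held under 0.1–0.5 cm standing water and grown 14 days in a greenhouse at 25–30 °C. An emulsifiable formulation, water-diluted to the set dose, was then sprayed onto the foliage, and effects were scored three weeks later using previously defined criteria.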

[8] = test system: persian speedwell; assay: Test Example 4: herbicidal effect by soil treatment (Table 19, symbol R); format: in vivo, Persian speedwell (Veronica persica); details: amount of applied herbicide 320 g/ha
How it was run: as §2

[9] = test system: windgrass; assay: Test Example 4: herbicidal effect by soil treatment (Table 19, symbol L); format: in vivo, windgrass (Apera spica-venti); details: amount of applied herbicide 320 g/ha
How it was run: as §2

[10] = test system: southern crabgrass; assay: Test Example 4: herbicidal effect by soil treatment (Table 19, symbol F); format: in vivo, southern crabgrass (Digitaria ciliaris); details: amount of applied herbicide 320 g/ha
How it was run: as §2

[11] = test system: barnyard grass; assay: Test Example 5: herbicidal effect by foliage application, plastic box (Table 20, symbol H); format: in vivo, barnyard grass (Echinochloa crus-galli); details: foliage application, 320 g/ha, three weeks after application
How it was run: as §1

[12] = test system: Chinese sprangletop; assay: Test Example 3: herbicidal effect by foliage application, Wagner pot (Table 18, symbol D); format: in vivo, chinese sprangletop (Leptochloa chinensis); details: 320 g/ha
How it was run: as §3

[13] = test system: Italian ryegrass; assay: Test Example 5: herbicidal effect by foliage application, plastic box (Table 20, symbol K); format: in vivo, Italian ryegrass (Lolium multiflorum); details: foliage application, 320 g/ha, three weeks after application
How it was run: as §1

[14] = test system: false cleavers; assay: Test Example 4: herbicidal effect by soil treatment (Table 19, symbol Q); format: in vivo, false cleavers (Galium spurium); details: amount of applied herbicide 320 g/ha
How it was run: as §2

[15] = test system: southern crabgrass; assay: Test Example 5: herbicidal effect by foliage application, plastic box (Table 20, symbol F); format: in vivo, southern crabgrass (Digitaria ciliaris); details: foliage application, 320 g/ha, three weeks after application
How it was run: as §1

[16] = test system: chickweed; assay: Test Example 4: herbicidal effect by soil treatment (Table 19, symbol P); format: in vivo, common chickweed (Stellaria media); details: amount of applied herbicide 320 g/ha
How it was run: as §2

[17] = test system: lambsquarters; assay: Test Example 5: herbicidal effect by foliage application, plastic box (Table 20, symbol O); format: in vivo, lambsquarters (Chenopodium album); details: foliage application, 320 g/ha, three weeks after application
How it was run: as §1

[18] = test system: chickweed; assay: Test Example 5: herbicidal effect by foliage application, plastic box (Table 20, symbol P); format: in vivo, common chickweed (Stellaria media); details: foliage application, 320 g/ha, three weeks after application
How it was run: as §1

[19] = test system: green foxtail; assay: Test Example 5: herbicidal effect by foliage application, plastic box (Table 20, symbol G); format: in vivo, green foxtail (Setaria viridis); details: foliage application, 320 g/ha, three weeks after application
How it was run: as §1

[20] = test system: wild oat; assay: Test Example 5: herbicidal effect by foliage application, plastic box (Table 20, symbol I); format: in vivo, wild oat (Avena fatua); details: foliage application, 320 g/ha, three weeks after application
How it was run: as §1

[21] = test system: windgrass; assay: Test Example 5: herbicidal effect by foliage application, plastic box (Table 20, symbol L); format: in vivo, windgrass (Apera spica-venti); details: foliage application, 320 g/ha, three weeks after application
How it was run: as §1

[22] = test system: barnyard grass; assay: Test Example 4: herbicidal effect by soil treatment (Table 19, symbol H); format: in vivo, barnyard grass (Echinochloa crus-galli); details: amount of applied herbicide 320 g/ha
How it was run: as §2

[23] = test system: green foxtail; assay: Test Example 4: herbicidal effect by soil treatment (Table 19, symbol G); format: in vivo, green foxtail (Setaria viridis); details: amount of applied herbicide 320 g/ha
How it was run: as §2

[24] = test system: blackgrass; assay: Test Example 5: herbicidal effect by foliage application, plastic box (Table 20, symbol J); format: in vivo, blackgrass (Alopecurus myosuroides); details: foliage application, 320 g/ha, three weeks after application
How it was run: as §1

[25] = test system: redroot pigweed; assay: Test Example 4: herbicidal effect by soil treatment (Table 19, symbol N); format: in vivo, redroot pigweed (Amaranthus retroflexus); details: amount of applied herbicide 320 g/ha
How it was run: as §2

[26] = test system: persian speedwell; assay: Test Example 5: herbicidal effect by foliage application, plastic box (Table 20, symbol R); format: in vivo, Persian speedwell (Veronica persica); details: foliage application, 320 g/ha, three weeks after application
How it was run: as §1

[27] = test system: Italian ryegrass; assay: Test Example 4: herbicidal effect by soil treatment (Table 19, symbol K); format: in vivo, Italian ryegrass (Lolium multiflorum); details: amount of applied herbicide 320 g/ha
How it was run: as §2

[28] = test system: barnyard grass; assay: Test Example 3: herbicidal effect by foliage application, Wagner pot (Table 18, symbol H); format: in vivo, barnyard grass (Echinochloa crus-galli); details: 320 g/ha
How it was run: as §3

[29] = test system: velvetleaf; assay: Test Example 5: herbicidal effect by foliage application, plastic box (Table 20, symbol M); format: in vivo, velvetleaf (Abutilon theophrasti); details: foliage application, 320 g/ha, three weeks after application
How it was run: as §1

SMILES	N: redroot pigweed, herbicidal effect grade [1]	I: wild oat, herbicidal effect grade [2]	M: velvetleaf, herbicidal effect grade [3]	Q: false cleavers, herbicidal effect grade [4]	O: lambsquarters, herbicidal effect grade [5]	J: blackgrass, herbicidal effect grade [6]	herbicidal effect on rice flat sedge (E) [7]	R: persian speedwell, herbicidal effect grade [8]	L: windgrass, herbicidal effect grade [9]	F: southern crabgrass, herbicidal effect grade [10]	H: barnyard grass, herbicidal effect grade [11]	herbicidal effect on Chinese sprangletop (D) [12]	K: Italian ryegrass, herbicidal effect grade [13]	Q: false cleavers, herbicidal effect grade [14]	F: southern crabgrass, herbicidal effect grade [15]	P: chickweed, herbicidal effect grade [16]	O: lambsquarters, herbicidal effect grade [17]	P: chickweed, herbicidal effect grade [18]	G: green foxtail, herbicidal effect grade [19]	I: wild oat, herbicidal effect grade [20]	also measured
COc1ccc2c(-c3c(O)c(C)nn(C)c3=O)c(-c3ccc(F)cc3)sc2c1 [3-063]	4 (Herbicidal rate of 70% or more and less than 90%)	1 (Herbicidal rate of 5% or more and less than 20%)	2 (Herbicidal rate of 20% or more and less than 40%)	5 (Herbicidal rate of 90% or more (almost completely withered))	5 (Herbicidal rate of 90% or more (almost completely withered))	0 (Herbicidal rate of 5% or less (almost no effect))	5 (Herbicidal rate of 90% or more (almost completely withered))	5 (Herbicidal rate of 90% or more (almost completely withered))	0 (Herbicidal rate of 5% or less (almost no effect))	0 (Herbicidal rate of 5% or less (almost no effect))	0 (Herbicidal rate of 5% or less (almost no effect))	0 (Herbicidal rate of 5% or less (almost no effect))	3 (Herbicidal rate of 40% or more and less than 70%)	2 (Herbicidal rate of 20% or more and less than 40%)	0 (Herbicidal rate of 5% or less (almost no effect))	5 (Herbicidal rate of 90% or more (almost completely withered))	3 (Herbicidal rate of 40% or more and less than 70%)	5 (Herbicidal rate of 90% or more (almost completely withered))	0 (Herbicidal rate of 5% or less (almost no effect))	2 (Herbicidal rate of 20% or more and less than 40%)	L: windgrass, herbicidal effect grade [21]: 2 (Herbicidal rate of 20% or more and less than 40%); H: barnyard grass, herbicidal effect grade [22]: 0 (Herbicidal rate of 5% or less (almost no effect)); G: green foxtail, herbicidal effect grade [23]: 0 (Herbicidal rate of 5% or less (almost no effect)); J: blackgrass, herbicidal effect grade [24]: 0 (Herbicidal rate of 5% or less (almost no effect)); N: redroot pigweed, herbicidal effect grade [25]: 3 (Herbicidal rate of 40% or more and less than 70%); R: persian speedwell, herbicidal effect grade [26]: 5 (Herbicidal rate of 90% or more (almost completely withered)); K: Italian ryegrass, herbicidal effect grade [27]: 0 (Herbicidal rate of 5% or less (almost no effect)); herbicidal effect on barnyard grass (H) [28]: 0 (Herbicidal rate of 5% or less (almost no effect)); M: velvetleaf, herbicidal effect grade [29]: 5 (Herbicidal rate of 90% or more (almost completely withered))
COc1ccc(-c2sc3cc(OC)ccc3c2-c2c(O)c(C)nn(C)c2=O)cc1 [3-068]	3 (Herbicidal rate of 40% or more and less than 70%)	0 (Herbicidal rate of 5% or less (almost no effect))	0 (Herbicidal rate of 5% or less (almost no effect))	5 (Herbicidal rate of 90% or more (almost completely withered))	4 (Herbicidal rate of 70% or more and less than 90%)	0 (Herbicidal rate of 5% or less (almost no effect))	3 (Herbicidal rate of 40% or more and less than 70%)	5 (Herbicidal rate of 90% or more (almost completely withered))	0 (Herbicidal rate of 5% or less (almost no effect))	0 (Herbicidal rate of 5% or less (almost no effect))	0 (Herbicidal rate of 5% or less (almost no effect))	2 (Herbicidal rate of 20% or more and less than 40%)	3 (Herbicidal rate of 40% or more and less than 70%)	4 (Herbicidal rate of 70% or more and less than 90%)	0 (Herbicidal rate of 5% or less (almost no effect))	2 (Herbicidal rate of 20% or more and less than 40%)	5 (Herbicidal rate of 90% or more (almost completely withered))	5 (Herbicidal rate of 90% or more (almost completely withered))	0 (Herbicidal rate of 5% or less (almost no effect))	0 (Herbicidal rate of 5% or less (almost no effect))	L: windgrass, herbicidal effect grade [21]: 0 (Herbicidal rate of 5% or less (almost no effect)); H: barnyard grass, herbicidal effect grade [22]: 0 (Herbicidal rate of 5% or less (almost no effect)); G: green foxtail, herbicidal effect grade [23]: 0 (Herbicidal rate of 5% or less (almost no effect)); J: blackgrass, herbicidal effect grade [24]: 1 (Herbicidal rate of 5% or more and less than 20%); N: redroot pigweed, herbicidal effect grade [25]: 4 (Herbicidal rate of 70% or more and less than 90%); R: persian speedwell, herbicidal effect grade [26]: 5 (Herbicidal rate of 90% or more (almost completely withered)); K: Italian ryegrass, herbicidal effect grade [27]: 2 (Herbicidal rate of 20% or more and less than 40%); herbicidal effect on barnyard grass (H) [28]: 3 (Herbicidal rate of 40% or more and less than 70%); M: velvetleaf, herbicidal effect grade [29]: 4 (Herbicidal rate of 70% or more and less than 90%)
